Reference: US10765638B2, “Particle formulation with polycation complex” (Yale University, priority 2017, dated 2020)
Entries after “also recorded” stand apart in the source; their conditions may differ.

Tests used:
FGFR1 dependent H1580 = conditions: Lopez-Sambrooks et al., Nat Chem Biol. 2016; cited from earlier work
EGFR, ErbB2, and ErbB3 = experiment: Western blot of ErbB family RTK glycosylation, phosphorylation and protein levels in glioma cells; format: cell-based
Experimental: In this study, the D54, SKMG3, U251, T98G and 42-MG glioma cell lines were used. The source of D54, SKMG3 and U251 cells has been described previously (Contessa at al., Clin Cancer Res., 16:3205-14 (2010), Lopez et al., Int J Radiat Oncol Biol Phys., 69:214-20 (2007)). The 42-MG and T98G cells were provided by Todd Waldman (Georgetown University) and Dr. Ranjit Bindra (Yale University), respectively. The cells were cultured in DMEM/F12 (D54 and T98G), DMEM (42-MG and U251) or RPMI 1640 (SKMG3)+10% FBS supplemented with penicillin and streptomycin (Gibco, Life Technologies, Grand Island, N.Y., US) in a humidified incubator with 5% CO2, and they were kept in culture no more than 6 months after resuscitation from the original stocks. […] Mycoplasma cell culture contamination was routinely checked and ruled out using a biochemical test (MycoAlert Mycoplasma Detection Kit from Lonza, Rockland, Me. USA). Tunicamycin was purchased from Calbiochem/EMD-millipore (Burlington, Mass., USA). Cetuximab and Erlotinib were purchased at Selleck Chemicals LLC (Houston, Tex., USA). Luciferin was supplied by Promega (Madison, Wis. USA). For in vitro experiments, radiation (XRT) was administered at room temperature using a Precision X-ray 320-kV orthovoltage unit at a dose rate of 2 Gy/45 seconds (PXI X-Ray Systems) with 2 mm aluminum filter. For in vivo studies, radiation was administered at room temperature using a Precision X-ray 250-kV orthovoltage unit at a dose rate of 6.42 Gy/min (PXI X-Ray Systems) with 2 mm aluminum filter. Quality Assurance for both irradiators was performed monthly using a P.T.W. 0.3 cm^3 Ionization Chamber calibrated to NIST standards and quarterly dosimetry using thermoluminescent dosimeter (TLD)-based or ferrous sulfate-based dosimeters.

SKMG3-CD8-EGFR cells = experiment: Radiation clonogenic survival assay; format: cell-based, human; conditions: 10 μM NGI-1
Experimental: Radiation (XRT) doses of either 0, 2, 4, or 6 Gy were delivered with a Precision X-ray 320-kV orthovoltage unit at a dose rate of 2 Gy/45 seconds (PXI X-Ray Systems). Twenty-four hours following XRT cells were washed, trypsinized, and re-plated in triplicate wells to determine clonogenic survival. […] Growth rates were determined by CellTiter 96 Non-Radioactive Cell Proliferation Assay (Promega; Madison, Wis., USA) according to the manufacturer's directions. For each experiment one thousand cells were seeded in triplicate wells in 96-wells plates. The following day, cell cultures were treated with NGI-1 (1 μM), Temozolomide (TMZ, 10 μM), Etoposide (VP-16, 0.1 μM) or combinations for 5 days. Absorbance at 540 nm was measured using the spectrophotometric reading (BioTek Synergy 2; Winooski, Vt. USA).
(§1) The CD8 cDNA was a gift from Paula Kavathas (Yale University). The CD8-EGFR was constructed according to a strategy that generated a constitutively active IGF-1R (24). The extracellular domain of CD8 was PCR amplified with a 5′ XbaI and 3′ SalI restriction site and cloned in-frame with the intracellular kinase domain of EGFR using the pDCB5-EGFR plasmid. SKMG3-CD8-EGFR cells were generated by Lipofectamine (Life Technologies) transfection of the plasmid followed by selection with 500 μg/ml G418. Expression of CD8-EGFR was validated by western blot analysis of the wild type and CD8-EGFR.

PC9-ERLucT cells = experiment: ER-LucT glycosylation reporter luciferase assay in vitro; format: cell-based; conditions: after 24 h, equivalent concentrations of NGI-1 dissolved in DMSO or via NP
Source text: To test the hypothesis that NGI-1 could enhance TKI therapy in EGFR mutant and TKI resistant NSCLC, a NGI-1 nanoparticle (NGI-NP) formulation was developed by nanoprecipitation of a NGI-1 PEI complex. All nanoparticle preparations were confirmed by DLS and the average particle size was 120±10 nm. To assess the activity of the NGI-1 NPs a PC9 cell line with stable expression of the ER-LucT glycosylation reporter (Contessa at al., Clin Cancer Res., 16(12):3205-14 (2010)), a luciferase engineered to be expressed in the endoplasmic reticulum with N-linked glycosylation sites, was established. Under normal cell conditions glycosylation of the luciferase blocks activity and luminescence. However, under conditions of decreased glycosylation luciferase activity is restored with a measurable increase in luciferase activity. Equivalent concentrations of NGI-1, either dissolved in DMSO or via NP, activated luminescence˜6 fold after 24 h in these PC9-ERLucT cells in vitro (FIG. 13A).

CD8-EGFR = experiment: Western blot of CD8-EGFR phosphorylation in SKMG3-CD8-EGFR cells; format: cell-based, human; conditions: SKMG3 cells with stable expression of the CD8-EGFR
Experimental: as §1, with “G418.” for “G418. Expression of CD8-EGFR was validated by western blot analysis of the wild type and CD8-EGFR.”

Solubility = format: physicochemical
U251 cells = experiment: Cell cycle distribution by flow cytometry; format: cell-based
Experimental: Cell cycle distribution was determined following treatment with vehicle, radiation and/or 10 uM NGI-1. Cells were trypsinized and centrifuged, washed once with ice-cold PBS, fixed with ice-cold 70% ethanol and stored overnight at −20° C. After washing twice with PBS, they were incubated for 30 minutes at room temperature in 200 μL of Guava Cell Cycle Reagent (Guava Technologies). Cytofluorometric acquisitions were performed on a LSRII cytometer (BD Biosciences). First-line analysis was performed with FlowJo software, upon gating of the events characterized by normal forward and side scatter parameters and discrimination of doublets in a FSC-A vs. FSC-H bivariate plot. Approximately 50,000 cells were analyzed per experiment.

## Cc1cnc(NC(=O)c2cc(S(=O)(=O)N(C)C)ccc2N2CCCC2)s1 [NGI-1, 5-(dimethylsulfamoyl)-N-(5-methyl-1,3-thiazol-2-yl)-2-(pyrrolidin-1-yl)benzamide]
FGFR1 dependent H1580
  sensitivity to OST inhibition with NGI-1: sensitive
EGFR, ErbB2, and ErbB3; D54 and SKMG3 cell lines
  ErbB3 protein levels: reduction of ErbB3 protein levels
EGFR, ErbB2, and ErbB3; SKMG3
  ErbB2 protein levels: reduction in ErbB2 protein levels
EGFR, ErbB2, and ErbB3; SKMG3 and D54 cell lines
  EGFR protein levels (as cause of reduced EGFR phosphorylation): not caused by decreases in EGFR protein levels
  glycosylation of EGFR, ErbB2, and ErbB3 (protein gel mobility on western blot): reduced glycosylation
  phosphorylation of EGFR, ErbB2, and ErbB3: reduced
SKMG3-CD8-EGFR cells
  radiosensitization by NGI-1 (radiation clonogenic survival): prevented radiosensitization
PC9-ERLucT cells
  activation of luminescence (luciferase activity): ~6 fold
CD8-EGFR
  CD8-EGFR phosphorylation (phospho-Y1068, phospho-Y845): resistant
Solubility
  solubility: low solubility; also recorded: solubility remains a significant challenge
U251 cells; 48 hours of 10 uM NGI-1, printed 64% vs. 72%
  cells in G1 (G1 arrest): 64%
U251 cells; NGI-1 + 4 Gy
  G1 arrest six hours after 4 Gy: not for either the T98G or U251 cells
